Laboratory results taken from US20250282736A1, “SMALL MOLECULE MODULATORS OF HUMAN PREGNANE X RECEPTOR” (ST. JUDE CHILDREN'S RESEARCH HOSPITAL, priority 2022, published 2025).

Legend:
hPXR [1] = target: T1, hPXR (Homo sapiens (Human), UniProt O75469); experiment: hPXR binding assay; settings: for inhibition at 10 µM: read-out: Binding (% inhibition at 10 μM)
hPXR [2] = target: T1, hPXR; experiment: cell-based hPXR antagonistic assay; settings: for inhibition at 10 µM: read-out: Antagonist (% inhibition at 10 μM)
hPXR [3] = target: T1, hPXR; experiment: cell-based hPXR agonistic assay; settings: for Agonist (% activation at 10 μM): rifampicin at 10 μM as 100% activation, DMSO (0.3%) as 0%
hPXR [4] = target: T1, hPXR; experiment: cell-based hPXR inverse agonistic assay; settings: for inhibition at 10 µM: read-out: Inverse agonist (% inhibition at 10 μM)
[5] = read-out: Binding (IC50/μM), hPXR binding assay

T1 sequence (O75469 whole entry): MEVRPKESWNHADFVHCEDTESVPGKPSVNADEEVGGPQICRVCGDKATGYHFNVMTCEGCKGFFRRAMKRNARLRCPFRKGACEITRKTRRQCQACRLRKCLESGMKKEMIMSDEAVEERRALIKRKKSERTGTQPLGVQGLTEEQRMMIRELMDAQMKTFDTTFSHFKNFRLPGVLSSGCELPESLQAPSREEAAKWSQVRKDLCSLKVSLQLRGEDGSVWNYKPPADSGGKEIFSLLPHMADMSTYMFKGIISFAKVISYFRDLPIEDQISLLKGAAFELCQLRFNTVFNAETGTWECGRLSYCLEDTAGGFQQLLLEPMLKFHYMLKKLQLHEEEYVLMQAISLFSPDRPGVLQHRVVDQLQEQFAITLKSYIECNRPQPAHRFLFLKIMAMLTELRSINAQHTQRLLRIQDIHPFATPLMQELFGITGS

Row | Structure (SMILES) | inhibition at 10 µM (hPXR [1]) [%] | IC50 (hPXR [1]; [5]) [µM] | IC50 (hPXR [2]) [µM] | inhibition at 10 µM (hPXR [2]) [%] | EC50 (hPXR [3]) [µM] | Agonist (% activation at 10 μM) (hPXR [3]) | IC50 (hPXR [4]) [µM] | IC50 (hPXR [1]) [µM] | inhibition at 10 µM (hPXR [4]) [%]
1 | CCC(C)Oc1ccc(C(C)(C)C)cc1NC(=O)c1nnn(-c2cc(Cl)ccc2OC)c1C (centres unmarked) [F10] | 90 | 0.0076 ± 0.0011 | 0.019 | 79 | 0.36 ± 0.16 | (9 ± 1)% | > 30 |  | 
2 | COc1ccc(-n2nnc(C(=O)Nc3ccc(N)c(C(C)(C)C)c3)c2C)cc1 [E3, N-(4-amino-3-(tert-butyl)phenyl)-1-(4-methoxyphenyl)-5-methyl-1H-1,2,3-triazole-4-carboxamide] |  |  | > 30 |  | 0.86 ± 0.12 | (29 ± 4)% | > 30 | > 30 | 
3 | COc1ccc(OC)c(-n2nnc(C(=O)NS(=O)(=O)c3ccc(C(C)(C)C)cc3)c2C)c1 [K5, N-((4-(tert-butyl)phenyl)sulfonyl)-1-(2,5-dimethoxyphenyl)-5-methyl-1H-1,2,3-triazole-4-carboxamide] | 43 | 10.7 ± 0.23 | > 30 |  | 7.46 ± 1.11 | (32 ± 2)% | > 30 |  | 
4 | CCCCOc1cc(NC(=O)c2nnn(-c3cc(C)ccc3OC)c2C)cc(C(C)(C)C)c1 [G9] | 62 | 0.21 | 0.4 | 105 | > 30 |  | 0.15 ± 0.04 |  | 96
5 | COc1ccc(OC)c(-n2nnc(N(S(=O)(=O)c3ccc(C(C)(C)C)cc3)S(=O)(=O)c3ccc(C(C)(C)C)cc3)c2C)c1 [K8] | 70 | 0.14 | 1.45 ± 0.2 | 49 | 0.19 | (21 ± 3)% | > 30 |  | 
6 | COc1ccc(C)cc1-n1nnc(C(=O)Nc2cc(O)cc(C(C)(C)C)c2)c1C [G7, N-(3-(tert-butyl)-5-hydroxyphenyl)-1-(2-methoxy-5-methylphenyl)-5-methyl-1H-1,2,3-triazole-4-carboxamide] | 81 | 2.29 ± 0.83 | 1.31 ± 0.23 | 103 | > 30 |  | 0.64 |  | 75
7 | COc1ccc(OC)c(-n2nnc(C(=O)Nc3cc(C(C)(C)C)ccc3OC(=O)c3nnn(-c4cc(OC)ccc4OC)c3C)c2C)c1 [B3, 4-(tert-butyl)-2-(1-(2,5-dimethoxyphenyl)-5-methyl-1H-1,2,3-triazole-4-carboxamido)phenyl 1-(2,5-dimethoxyphenyl)-5-methyl-1H-1,2,3-triazole-4-carboxylate] |  |  | > 30 |  | 0.59 | (55 ± 6)% | > 30 | > 30 | 
8 | COc1ccc(OC)c(-n2nnc(C(=O)Nc3cccc(-n4cccc4)c3)c2C)c1 [A11] | 24 | 1.41 ± 0.69 | > 30 |  | > 30 |  | > 30 |  | 
9 | CCCCNc1cc(NC(=O)c2nnn(-c3cc(Cl)ccc3OC)c2C)cc(C(C)(C)C)c1 [F3] | 83 | 0.12 | 0.21 | 104 | > 30 |  | 0.062 |  | 89
10 | CCCCOc1ccc(C(C)(C)C)cc1NC(=O)c1nnn(-c2ccncc2)c1C [H13] |  |  | > 30 |  | > 30 |  | > 30 | > 30 | 
11 | COc1ccc(OC)c(-n2nnc(C(=O)Nc3cc(NCC(=O)O)cc(C(C)(C)C)c3)c2C)c1 [D9] | 61 | 3.53 ± 0.58 | 17.3 ± 1.39 | 65 | > 30 |  | 1.7 |  | 107
12 | CCCC(CC)Oc1ccc(C(C)(C)C)cc1NC(=O)c1nnn(-c2ccccc2OC)c1C (centres unmarked) [I1] | 89 | 0.0062 ± 0.0001 | 0.031 | 84 | 0.01 | (8 ± 2)% | > 30 |  | 
13 | COc1ccc(OC)c(-n2nnc(C(=O)Nc3cc(OCCCCCCCCI)cc(C(C)(C)C)c3)c2C)c1 [D21, N-(3-(tert-butyl)-5-((8-iodooctyl)oxy)phenyl)-1-(2,5-dimethoxyphenyl)-5-methyl-1H-1,2,3-triazole-4-carboxamide] | 59 | 1.09 ± 0.31 | 2.7 | 82 | > 30 |  | 0.33 |  | 92
14 | COc1cc(NC(=O)c2nnn(-c3cc(C)ccc3OC)c2C)cc(C(C)(C)C)c1 [G8] | 57 | 0.53 | 0.64 ± 0.1 | 109 | > 30 |  | 0.2 |  | 115
15 | CCC[C@H](CC)Oc1ccc(C(C)(C)C)cc1NC(=O)c1nnn(-c2cc(OC)ccc2OC)c1C [M1, (S)—N-(5-(Tert-Butyl)-2-(Hexan-3-yloxy)Phenyl)-1-(2,5-Dimethoxyphenyl)-5-Methyl-1H-1,2,3-Triazole-4-Carboxamide] | 93 | 0.015 ± 0.003 | 0.0069 ± 0.0005 | 105 | > 30 |  | 0.0011 ± 0.0005 |  | 165
